From patent publication US4450115A, “Amino-alcohol derivatives” (Kyowa Hakko Kogyo Co., Ltd., priority 1979, dated 1984)
Where two headings read alike, the source gives them in different places.

Columns and labels:
in vivo = conditions: mouse, Table 5, oral, male dd-strain mice
Description: The test compounds were orally administered to male dd-strain mice weighing 20-25 g.

[1] = test system: main artery of the dogs' organ; test: Effect on organ blood flow; format: in vivo, mongrel dogs; conditions: Canis lupus familiaris, iv, Table 5, femoral vein;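 note: percent change relative to blood flow before compound administration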
Procedure: In experiments (a), (b), (c) and (d), 3-4 male or female mongrel dogs (weight: 10-20 Kg) as one group were anesthetized by intravenous administration of 30 mg/kg of pentobarbital-Na. All compounds were dissolved in polyethylene glycol 400 and administered to the femoral vein.
(b) Effect on organ blood flow M (%)
In this test, 1 mg/kg of each compound shown in Tables 5 and 7 is administered to the dogs and an electromagnetic probe is attached to the main artery of the dogs' organ to measure the flow of blood.

[2] = read-out: Organ blood flow, Crotch (percentage change)
[3] = read-out: Organ blood flow, Malleus (percentage change)

Structure (SMILES) | LD50 (in vivo) [mg/kg] | change in vivo at 1 mg/kg [1, 2] [%] | change in vivo at 1 mg/kg [1, 3] [%]
Cc1cccc(OCC(O)CNCC2COc3ccccc3O2)c1 (stereo not shown) [Compound 1, 1-(3-methylphenoxy)-3-(1,4-benzodioxane-2-methaneamino)-2-propanol] | 1000 to 2000 | 35 | 67
CC(=O)Nc1ccc(OCC(O)CNCC2COc3ccccc3O2)cc1 (stereo not shown) [Compound 2, 1-(4-acetamidophenoxy)-3-(1,4-benzodioxane-2-methaneamino)-2-propanol] | 500 to 1000 | 20 | 50
N#Cc1ccccc1OCC(O)CNCC1COc2ccccc2O1 (stereo not shown) [Compound 3, 1-(2-cyanophenoxy)-3-(1,4-benzodioxane-2-methaneamino)-2-propanol] | 420 | -21 | 18
CCOC(=O)Cc1ccc(OCC(O)CNCC2COc3ccccc3O2)cc1 (stereo not shown) [Compound 5, 1-(4-ethoxycarbonylmethyl)phenoxy-3-(1,4-benzodioxane-2-methaneamino)-2-propanol] | > 1000 | -26 | -84
Cc1cccc(OCC(O)CNCC2COc3ccccc3O2)c1C (stereo not shown) [Compound 6, 1-(2,3-dimethylphenoxy)-3-(1,4-benzodioxane-2-methaneamino)-2-propanol] | > 1000 | 17 | -9
OC(CNCC1COc2ccccc2O1)COc1cccc2ccccc12 (stereo not shown) [Compound 7, 1-(1-naphthyloxy)-3-(1,4-benzodioxane-2-methaneamino)-2-propanol] | > 1000 | -36 | 59
COc1ccc(C(O)C(C)NCC2COc3ccccc3O2)cc1C (stereo not shown) [Compound 8, 1-(3-methyl-4-methoxy)phenyl-2-(1,4-benzodioxane-2-methaneamino)propanol] | 450 | -67 | -4
Cc1c(C(O)CNCC2COc3ccccc3O2)oc2ccc(F)cc12 (stereo not shown) [Compound 9, 1-(5-fluoro-3-methyl-2-benzofuranyl)-2-(1,4-benzodioxane-2-methaneamino)ethanol] |  | 42 | 35
COC(=O)c1cc(C(O)CNCC2COc3ccccc3O2)ccc1O (stereo not shown) [Compound 10, 1-(3-methoxycarbonyl-4-hydroxy)phenyl-2-(1,4-benzodioxane-2-methaneamino)ethanol] |  | -50 | -16
CC(=O)Nc1ccc(OCC(O)CNCc2ccc3c(c2)OCCO3)cc1 (stereo not shown) [Compound 23, 1-(4-acetamidophenoxy)-3-(1,4-benzodioxane-6-methaneamino)-2-propanol] | > 1000 | 90 | 67
O=C1CCCc2c(OCC(O)CNCc3ccc4c(c3)OCCO4)cccc21 (stereo not shown) [Compound 24, 1-{3,4-dihydro-1(2H)-naphthalenon-5-yl}oxy-3-(1,4-benzodioxane-6-methaneamino)-2-propanol] | > 1000 | 106 | 60
NC(=O)Cc1ccc(OCC(O)CNCc2ccc3c(c2)OCCO3)cc1 (stereo not shown) [Compound 25, 1-(4-carbamoylmethylphenoxy)-3-(1,4-benzodioxane-6-methaneamino)-2-propano] | > 1000 | 90 | 22
